Measurements published in a melting point compilation (Tetko et al.; mined from patent text by program, amines drawn as free bases though some values may be those of a salt).

Row | SMILES | melting point
1 | C[C@H](NC(=O)OC(C)(C)C)C(=O)N1CCC[C@H]1C(=O)N1CCC[C@H]1C(=O)OCc1ccccc1 | 143 to 145 °C
2 | c1ccc(-c2nn3ccccc3c2-c2ccncc2)cc1 | 166 to 167 °C
3 | O=C(NC1CC=CCC1)NS(=O)(=O)c1ccc2c(c1)CCN(C(=O)N1CCCC1)CC2 (stereo not drawn) | 211 to 212 °C
4 | O=C(O)C1CCc2cc(Cl)c(C3CCCCC3)cc21 (stereo not drawn) | 140 to 143 °C
5 | COc1cc(C(F)(F)F)nn1-c1ccc(NC(=O)c2cccnc2F)cc1 | 153 to 154 °C
6 | O=c1[nH]c2cccnc2n1-c1ccc2c(c1)COC2 | 243 °C
7 | CCOC(=O)c1cc([N+](=O)[O-])c(C(=O)O)cc1C(=O)O | 189 to 191 °C
8 | CCOC(=O)c1cc2cc(Oc3ccc(S(C)(=O)=O)cc3)cc(O)c2[nH]1 | 197 to 198 °C
9 | C[Si](C)(C)C#C[C@@]1(O)[C@@H](COC(=O)c2ccc(Cl)cc2)OC(O)[C@@H]1O (stereo partly drawn) | 130 to 132 °C
10 | CCC1(C)CCNC1=O (stereo not drawn) | 39 to 40 °C
11 | N=c1cc(N)nc2n1CCS2 | 146 to 148 °C
12 | FC(F)(F)c1nc[nH]n1 | 89 °C
13 | CC(C)OC(=O)N1CCC(NC(=O)N2CCn3c(c(C(N)=O)c(Cl)c3-c3ccccc3)C2)CC1 | 166 to 167 °C
14 | COc1ccc(C(=O)N2CCC(N(C)c3ccccc3Cl)c3ccccc32)cc1OC (stereo not drawn) | 146 to 147 °C
15 | Cc1[nH]c(C)c(-c2ccc(Oc3ccc(Cl)cc3)cc2)c(=O)c1Cl | 340 to 343 °C
16 | CN(C)C=Nc1c(Cl)cc(N=Cc2ccc(N(C)C)cc2Cl)cc1Cl | 139 to 140 °C
17 | CC(C)c1ccc(-c2cnc(-c3cccc(C(=O)O)c3)o2)cc1 | 150 to 153 °C
18 | CN(C(=O)CCCCC1SCC2NC(=O)NC21)c1ccc(/C=C/c2c(F)cccc2F)cc1 (stereo not drawn) | 91 to 93 °C
19 | CC1CCCC1(Oc1ccc(CC(=O)c2ccc3c(c2)CCC3)cc1)C(=O)O (stereo not drawn) | 191 to 193 °C
20 | CCOC(=O)c1cnn(-c2cc(Cl)cc(Cl)c2)c1SC | 70 to 72 °C
21 | O=S(=O)(Nc1cccc(CC2Cc3ccc(OCc4nc5cc(F)c(F)cc5s4)cc3C2O)c1)C(F)(F)F (stereo not drawn) | 170 to 172 °C
22 | Clc1cnc2[nH]c3ccc(CCc4ccccc4)cc3c2c1 | 216 to 220 °C
23 | COc1ccc(Cl)c(S(=O)(=O)NC(=O)c2cn3cc(C(F)(F)F)ncc3n2)c1 | 236 to 237 °C
24 | O=C(O)C1=CCCN1C(=O)CCS | 94 to 96 °C
25 | COC(=O)c1sc2ccc(Br)cc2c1-c1ccccc1 | 125 to 126 °C

Row | SMILES | melting point
26 | COc1cc(N)c(Cl)cc1C(=O)NC1CCN(CCCOc2ccc(F)cc2)CC1(F)F (stereo not drawn) | 126 °C
27 | C#CCSc1ccccc1C=CCN(O)C(N)=O | 141 to 142 °C
28 | CSc1ccc2ccc(N3C(=O)c4ccccc4C3=O)nc2n1 | 235 °C
29 | CCC(=O)NC[C@@H]1C[C@H]1c1cccc2nn(C)cc12 (relative stereo) | 79 to 80 °C
30 | COc1ccc(-c2ccc3c(c2)C=C(C(=O)Nc2ccc(CN(C)C4CCC(=O)CC4)cc2)CCS3(=O)=O)cc1 | 214 to 218 °C
31 | O=c1[nH]c2ccccc2c(=O)n1CCCCN1CCC(OC(c2ccccc2)c2ccccc2)CC1 | 140 to 142 °C
32 | CSc1ccc2ncn(CCN3CCC(Nc4nc5ccccc5n4Cc4ccc(F)cc4)CC3)c(=O)c2c1 | 101 °C
33 | Oc1ccc(Oc2ccc(OCC(O)CCc3cccnc3)cc2)cc1 (stereo not drawn) | 89 to 91 °C
34 | CCN(CC)C(=O)c1ccc(Cl)c(C2(C)C(=O)N(Cc3ccc(OC)cc3OC)c3ccccc32)c1 (stereo not drawn) | 172 °C
35 | COc1ccc(-c2ccc(O)cc2C=O)cc1Cl | 168 to 170 °C
36 | C=C(C#N)CN1CCC(C(=O)O)CC1 | 109 to 111 °C
37 | O=C1C(O)OCN1c1cccc(C(F)(F)F)c1 (stereo not drawn) | 75 to 76 °C
38 | COc1ccc2c(C(=O)c3ccc(OC4CCCCC4N4CCOCC4)cc3)c(-c3ccc(OCCN4CCCC4)cc3)sc2c1 (stereo not drawn) | 50 to 57 °C
39 | COC(=O)c1cccc(S(=O)(=O)C2CCN(CCc3ccc(F)cc3F)CC2)c1 | 116 to 117 °C
40 | CSc1ccc(N(C)S(=O)(=O)c2ccc(C)cc2)c(C#N)c1 | 139 to 140 °C
41 | COCCn1nc2c(N)nc3ccccc3c2c1CC1CCOCC1 | 189 to 190 °C
42 | O=Cc1cnc(-c2ccc(OC(F)(F)F)cc2)nc1 | 114 to 115 °C
43 | Cc1nc2c(s1)N(C(=O)c1cnoc1C)CCCC2 | 117 to 118 °C
44 | CC(=O)NNc1ccc(NC(=S)Nc2ccccc2)cc1 | 205 to 207 °C
45 | Nc1nc2cccnc2n1Cc1ccco1 | 193 °C
46 | NC(=O)C1C=Cc2cc(Cl)ccc2N1C(=O)c1ccccc1 (stereo not drawn) | 230 to 234 °C
47 | CC(=O)c1cccc(-c2ncc(N=CN(C)C)cn2)c1 | 146 to 148 °C
48 | CCn1c(-c2ccnc3ccccc23)nc(-c2ccncc2)c1-c1ccc(Cl)cc1 | 167 to 169 °C
49 | COc1cc(-c2ccccc2)nc(-c2ccc(C)cc2)n1 | 99 to 100 °C
50 | CC(C)c1ccc(S(=O)(=O)Nc2ccc(C(F)(F)F)cc2I)cc1 | 101 °C

Row | SMILES | melting point
51 | OCC1OC(n2c(Cl)nc3cc(Cl)c(Cl)cc32)C(O)C1F (stereo not drawn) | 238 °C
52 | CC1CCN(c2scc(C(C)(C)C)c2C#N)C1=O (stereo not drawn) | 92 to 94 °C
53 | O=C(NC(=O)c1cccs1)NC1CCNC(Cc2ccc3ccccc3c2)C1 (stereo not drawn) | 217 to 219 °C
54 | COc1cccc(OCCCN2CCC(C(O)(c3ccc(F)cc3)c3ccc(F)cc3)CC2)c1 | 107 to 108 °C
55 | CCC(=O)OCC1(C)OCC2(CO1)COC(C)(COC(=O)CC)OC2 (stereo not drawn) | 55 to 56 °C
56 | Cc1ccc(O)c(-c2nc(-c3cc(C)ccc3O)n(-c3ccc(C(=O)O)cc3)n2)c1 | 268 to 269 °C
57 | CCC(CC)C(=O)N1CC(NC(=O)Nc2cccc(C(=O)O)c2)C(=O)N(CC(=O)c2ccccc2C)c2cc(C)ccc21 (stereo not drawn) | 244 to 246 °C
58 | C#Cc1ncn2c(C(F)(F)F)cc(-c3ccc(C(F)(F)F)cc3)nc12 | 163 °C
59 | CC1(C)CC(=O)C2=C(C1)NC1=C(C(=O)CC(C)(C)C1)C2c1ccc(C(F)(F)F)c(F)c1 | 296 to 300 °C
60 | CCOc1ccc(O)c(C(C)(C)C)c1 | 96 to 98 °C
61 | Cc1cc(C2c3cc4c(cc3CC(C)NN2C(=O)NC(C)c2ccccc2)OCO4)ccc1[N+](=O)[O-] (stereo not drawn) | 202 to 204 °C
62 | COc1cc2c(cc1OC)N(C(=O)c1ccc(-c3ccccc3OC)c(C)c1)Cc1ccc(C(=O)N(C)CC(O)C(O)C(O)C(O)CO)n1C2 (stereo not drawn) | 110 to 120 °C
63 | Cc1cc(C)nc(N(C#N)c2ccccc2)n1 | 153 to 154 °C
64 | Cc1c(Cl)cccc1N1CCN(CCc2nn(Cc3c[nH]cn3)c3cc4c(cc23)OCO4)CC1 | 176 to 177 °C
65 | Cc1nc2c(OCc3ccccc3)cc(CO)cn2c1C | 213 to 215 °C
66 | N#CCc1cccc2c(C3CCCCC3)nccc12 | 85.3 to 85.6 °C
67 | CCCCOC(=O)[C@H]1CN(c2ccc3c(c2)oc(=O)n3CC)C(=O)O1 | 155 to 157 °C
68 | CC1(C)Oc2ccc(C#N)cc2C(n2nc(O)ccc2=O)C1O (stereo not drawn) | 251 to 252 °C
69 | COC(=O)c1cccc(Oc2nn(Cc3ccccc3)c3ccccc23)n1 | 92 to 94 °C
70 | CCOC(=O)c1c(C)nc2ccc(NCCCN3CCC(OC(c4ccccc4)c4ccccc4)CC3)nn12 | 117 to 119 °C
71 | CC(=O)NC1CCc2cc3c(cc2C1)OCC3O (stereo not drawn) | 254 °C
72 | CC(=O)OCc1cccc(NC(=O)c2nnn(Cc3ccc(Cl)c(Cl)c3)c2C)c1 | > 70 °C
73 | CN1CCC(Nc2ccccc2C(=O)c2ccccc2Cl)CC1 | 128 to 129 °C
74 | CCOC(OCC)C(=O)Nc1ccc(Cl)cc1N | 89 to 90 °C
75 | Cc1nc2ccc(CN(CCO)c3ccc(C(=O)NCc4cccc([N+](=O)[O-])c4)cc3)cc2c(=O)[nH]1 | 230 to 232 °C

Row | SMILES | melting point
76 | CCCCOC(=O)Cc1nc(-c2ccc(F)cc2)oc1-c1ccsc1 | 81 to 82 °C
77 | NC(=O)CN1C(=O)C(=Cc2ccc(OCCc3ccccc3)c(OCc3ccccc3)c2)SC1=S | 212 to 214 °C
78 | Clc1nccnc1Oc1ccc2c(c1)OCO2 | 87 to 88 °C
79 | CCN(C(=O)OC)c1cccc(-c2ccc3nncn3n2)c1 | 131 to 135 °C
80 | CCN1CCCN(c2cc(Cl)ccc2C)C1=S | 111 to 112 °C
81 | COC(=O)c1ccc2c(ccn2Cc2cccc([N+](=O)[O-])c2)c1 | 129 to 130 °C
82 | CC(=O)c1ccc(OCCCN2CCC(c3noc4cc(F)ccc34)CC2)c(Br)c1 | 126 to 128 °C
83 | CN(C)c1cc2nc(C(=O)O)c(=O)[nH]c2cc1[N+](=O)[O-] | 194 to 196 °C
84 | COc1ccc2sc(C(=O)O)c(OCc3ccccc3)c2c1 | 150 °C
85 | COc1ccc(-c2nc(C(N)=O)sc2-c2ccc(OC)cc2)cc1 | 160 to 162 °C
86 | O=C1NC(=O)C2(CCOc3c([N+](=O)[O-])cc(F)cc32)S1 (stereo not drawn) | 192 to 194 °C
87 | CCc1[nH]c(C)c(C(C)=O)c1C | 153 to 160 °C
88 | CC(C)N(CCCN1C(=O)/C(=N/NC(N)=O)c2ccccc21)C(C)C | 173 to 175 °C
89 | Cc1ccc(S(=O)(=O)OCC(NC(=O)OC(C)(C)C)C(C)C)cc1 (stereo not drawn) | 85 °C
90 | CCc1c(C(C)C)cc(C(C)C)c(C(C)O)c1-c1ccc(F)cc1 (single isomer, unassigned; (+)) | 143 to 145 °C
91 | CC1(C)OC(=O)C(C(c2ccccc2)c2c[nH]c3ccccc23)C(=O)O1 (stereo not drawn) | 147 to 150 °C
92 | O=C(CO)NCCCOCCCCOCCCNC(=O)CO | 67 to 71 °C
93 | CCCc1nc(C(=O)C(C)(C)C)c(C#N)n1Cc1ccc(-c2ccccc2-c2nnnn2C(c2ccccc2)(c2ccccc2)c2ccccc2)cc1 | 107 to 110 °C
94 | CCOc1cc(C(CC(C)O)N2C(=O)c3cccc(NC(C)=O)c3C2=O)ccc1OC (stereo not drawn) | 132 to 134 °C
95 | CC(COc1ccc(N2N=C3c4ccccc4SCC3CC2=O)cc1)N(C)C (stereo not drawn) | 171 to 173 °C
96 | CC(N)(Cc1c[nH]c2ccccc12)C(=O)NCCc1ccccc1 (stereo not drawn) | 106 to 110 °C
97 | O=C1NN=C(c2cc3ccccc3o2)CO1 | 209 to 211 °C
98 | CCN(C1CC(C)(C)Oc2ccc(OCCO)cc21)S(C)(=O)=O (stereo not drawn) | 76 to 78 °C
